Bounds are passed on as bounds.
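Also: XPA expressed in Sf9 cells, preincubated with compound on ice before adding DNA, complex resolved on native polyacrylamide gel at 4 °C, PhosphorImager band intensity, binding inhibition versus DMSO.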

The assay deals with full length XPA protein (Homo sapiens, UniProt P23025). As to the kind of experiment: biochemical. Conditions: IC50 (μM), EMSA, 32P labeled 30 bp duplex DNA containing a single 1,2 dGpG cisplatin adduct, several values in a cell = separate determinations. In general terms: Mobility shift assays separate free from complexed probe on a gel.
Sequence of full length XPA protein (P23025 whole entry): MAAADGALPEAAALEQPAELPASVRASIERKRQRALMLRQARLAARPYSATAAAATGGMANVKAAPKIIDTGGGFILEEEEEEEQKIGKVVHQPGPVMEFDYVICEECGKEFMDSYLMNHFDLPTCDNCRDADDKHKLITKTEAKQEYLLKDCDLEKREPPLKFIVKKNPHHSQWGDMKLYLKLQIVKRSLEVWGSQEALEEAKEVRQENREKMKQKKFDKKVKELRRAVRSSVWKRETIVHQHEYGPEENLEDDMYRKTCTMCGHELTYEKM
Protocol: Purified XPA (lanes 2-18) was mixed with DMSO (Lane 2, C) control or the indicated compound at a concentration of 50 μM (Lanes 3-18). ^32P labeled ds-platinum damaged DNA was added and incubation continued for 30 minutes on ice. The products were separated on a 6% native gel by electrophoresis at 4° C. Products were detected and quantified by PhosphorImager analysis.
EMSA was carried out using previously described procedure with the following modification. Reactions were performed in volume of 20 μL, containing a ^32P labeled 30 bp duplex DNA containing a single 1,2 dGpG cisplatin adduct. Compounds were pre-incubated on ice with the indicated amount of XPA and products separated by electrophoresis on a non-denaturing 6% polyacrylamide gel. Gels were cooled, loaded and electrophoresis performed at 4° C. Gels were used to expose a Phosphorlmager screen and band intensity determined and % binding and inhibition calculated as we have previously described.
Broadly, the IC50 is the midpoint of a concentration-inhibition curve. Read a low IC50 as inhibition by little substance. As to `COc1cccc(NC(=O)c2cc(-c3ccc(CC4C(=O)N(c5ccc(C(=O)O)cc5)N=C4C)s3)ccc2Cl)c1` (stereo not drawn) [NG-03-238, 4-(4-((5-(4-Chloro-3-((3-methoxyphenyl)carbamoyl)phenyl)thiophen-2-yl)methyl)-3-methyl-5-oxo-4,5-dihydro-1H-pyrazol-1-yl)benzoic acid], the IC50 worked out at 45 µM.
Consider `CC1=NN(c2cccc(C(=O)O)c2)C(=O)C1=Cc1ccc(-c2ccc(Cl)c(C(=O)NCC3CCCCC3)c2)o1` (mixture of isomers) [NG-04-274, 3-(4-((5-(4-chloro-3-((cyclohexylmethyl)carbamoyl)phenyl)furan-2-yl)methylene)-3-methyl-5-oxo-4,5-dihydro-1H-pyrazol-1-yl)benzoic acid], for which half-maximal inhibition (IC50) required 35 µM.
`CC1=NN(c2cccc(C(=O)O)c2)C(=O)/C1=C\c1ccc(-c2ccc(Cl)c(C(=O)O)c2)s1` [NG-03-224, (Z)-5-(5-((1-(3-Carboxyphenyl)-3-methyl-5-oxo-1,5-dihydro-4H-pyrazol-4-ylidene)methyl)thiophen-2-yl)-2-chlorobenzoic acid]: half-maximal inhibition (IC50) was put at 30 µM.
Turning to `CC1=NN(c2cccc(C(=O)O)c2)C(=O)/C1=C\c1ccc(-c2ccc(Cl)c(C(=O)NC3CC3)c2)o1` [Compound 34f, (Z)-3-(4-((5-(4-Chloro-3-(cyclopropylcarbamoyl)phenyl)furan-2-yl)methylene)-3-methyl-5-oxo-4,5-dihydro-1H-pyrazol-1-yl)benzoic acid], the IC50 amounted to 32 µM.
In the case of `CC1=NN(c2cccc(C(=O)O)c2)C(=O)/C1=C\c1ccc(-c2cccc(C(=O)OC(C)C)c2)o1` [Compound 3125], it took 3 µM to reach half-maximal inhibition (IC50).
Consider `CCOC(=O)c1cccc(N2N=C(C(F)(F)F)C(=Cc3ccc(-c4ccc(Cl)c(C(=O)Nc5cccc(OC)c5)c4)o3)C2=O)c1` (mixture of isomers) [NG-04-311, ethyl 3-(4-((5-(4-chloro-3-((3-methoxyphenyl)carbamoyl)phenyl)furan-2-yl)methylene)-5-oxo-3-(trifluoromethyl)-4,5-dihydro-1H-pyrazol-1-yl)benzoate], for which the IC50 is > 50 µM.
